{
  "source": "the supplement of paper PMC10307832",
  "experiment_in_all_cases": "relative viability (nuclei count vs DMSO), 5 days (fraction); higher = more cells survive",
  "key": {"Sulindac + Pemetrexed": {"compound": "CC1=C(CC(=O)O)c2cc(F)ccc2/C1=C\\c1ccc([S+](C)[O-])cc1 [Sulindac] + Nc1nc2[nH]cc(CCc3ccc(C(=O)N[C@@H](CCC(=O)O)C(=O)O)cc3)c2c(=O)[nH]1 [Pemetrexed] (partner 0.2 µM)", "outline": "(§1)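 Lung cancer cell lines in 1536-well plates got either a single drug or a fixed anchor-drug dose together with five library-drug doses (not always all listed) in √10 steps, by pin tool, on the day after seeding. Nuclei were counted after 5 days, and relative viability is the treated-to-vehicle ratio of nuclei counts. Values are medians of duplicate plates.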"}, "[1]": {"compound": "CN[C@@H]1C[C@H]2O[C@@](C)([C@@H]1OC)n1c3ccccc3c3c4c(c5c6ccccc6n2c5c31)C(=O)NC4 [Staurosporine] + Cc1cc(Nc2cc(N3CCN(C)CC3)nc(Sc3ccc(NC(=O)C4CC4)cc3)n2)n[nH]1 [Tozasertib] (partner 0.1 µM)", "outline": "as §1"}, "[2]": {"compound": "O=c1[nH]cc(F)c(=O)[nH]1 [5-Fluorouracil] + Cc1nc(NC(=O)N2CCC[C@H]2C(N)=O)sc1-c1ccnc(C(C)(C)C(F)(F)F)c1 [Alpelisib] (partner 2 µM)", "outline": "as §1"}, "[3]": {"compound": "O=c1[nH]cc(F)c(=O)[nH]1 [5-Fluorouracil] + O=C(c1cc(Cc2n[nH]c(=O)c3ccccc23)ccc1F)N1CCN(C(=O)C2CC2)CC1 [Olaparib] (partner 8 µM)", "outline": "as §1"}},
  "data": [
    {"cell line": "UMC-11", "values": [
      {"measurement": "relative viability", "setting": "Sulindac + Pemetrexed; first compound 0.08 µM", "result": 0.853},
      {"measurement": "relative viability", "setting": "Sulindac + Pemetrexed; first compound 0.253 µM", "result": 0.808},
      {"measurement": "relative viability", "setting": "Sulindac + Pemetrexed; first compound 0.8 µM", "result": 0.582},
      {"measurement": "relative viability", "setting": "Sulindac + Pemetrexed; first compound 2.53 µM", "result": 0.747},
      {"measurement": "relative viability", "setting": "Sulindac + Pemetrexed; first compound 8 µM", "result": 0.868},
      {"measurement": "relative viability", "setting": "[1]; first compound 0.005 µM", "result": 0.189},
      {"measurement": "relative viability", "setting": "[1]; first compound 0.01581 µM", "result": 0.161},
      {"measurement": "relative viability", "setting": "[1]; first compound 0.05 µM", "result": 0.145},
      {"measurement": "relative viability", "setting": "[1]; first compound 0.1581 µM", "result": 0.127},
      {"measurement": "relative viability", "setting": "[1]; first compound 0.5 µM", "result": 0.122},
      {"measurement": "relative viability", "setting": "[2]; first compound 0.02 µM", "result": 0.792},
      {"measurement": "relative viability", "setting": "[2]; first compound 0.2 µM", "result": 0.645},
      {"measurement": "relative viability", "setting": "[2]; first compound 2 µM", "result": 0.326},
      {"measurement": "relative viability", "setting": "[3]; first compound 0.02 µM", "result": 0.409},
      {"measurement": "relative viability", "setting": "[3]; first compound 0.2 µM", "result": 0.37},
      {"measurement": "relative viability", "setting": "[3]; first compound 0.6325 µM", "result": 0.334}
    ]}
  ]
}
